We go through three compounds from ChEMBL document CHEMBL3792292, “Development of a potent and selective FLT3 kinase inhibitor by systematic expansion of a non-selective fragment-screening hit” (Bioorg Med Chem Lett, 2016).

The structures appear in SMILES notation.

Test [1] deals with T1, Lymphokine-activated killer T-cell-originated protein kinase (Homo sapiens) (UniProt Q96KB5).
T1 sequence (whole entry): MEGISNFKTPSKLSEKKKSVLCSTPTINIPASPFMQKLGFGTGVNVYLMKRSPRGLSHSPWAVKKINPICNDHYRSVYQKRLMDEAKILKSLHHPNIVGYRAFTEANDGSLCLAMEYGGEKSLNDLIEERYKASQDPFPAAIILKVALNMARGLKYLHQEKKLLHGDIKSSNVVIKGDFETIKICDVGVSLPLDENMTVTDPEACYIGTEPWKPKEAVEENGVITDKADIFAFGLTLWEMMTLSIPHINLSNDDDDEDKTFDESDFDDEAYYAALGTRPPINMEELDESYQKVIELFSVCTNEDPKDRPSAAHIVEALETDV
Put plainly: Inhibition of full length human N-terminal GST-tagged PBK (1 to 322 residues) expressed in baculovirus expression system using fluorescence labelled histone H3 peptide substrate at 50 times IC50 by electrophoretic mobility shift assay relative to control. In general terms: A gel shift assay detects complexes by their altered migration in electrophoresis.

The target of test [2] is T2, Serine/threonine-protein kinase Chk1 (Homo sapiens) (UniProt O14757).
T2 sequence (whole entry): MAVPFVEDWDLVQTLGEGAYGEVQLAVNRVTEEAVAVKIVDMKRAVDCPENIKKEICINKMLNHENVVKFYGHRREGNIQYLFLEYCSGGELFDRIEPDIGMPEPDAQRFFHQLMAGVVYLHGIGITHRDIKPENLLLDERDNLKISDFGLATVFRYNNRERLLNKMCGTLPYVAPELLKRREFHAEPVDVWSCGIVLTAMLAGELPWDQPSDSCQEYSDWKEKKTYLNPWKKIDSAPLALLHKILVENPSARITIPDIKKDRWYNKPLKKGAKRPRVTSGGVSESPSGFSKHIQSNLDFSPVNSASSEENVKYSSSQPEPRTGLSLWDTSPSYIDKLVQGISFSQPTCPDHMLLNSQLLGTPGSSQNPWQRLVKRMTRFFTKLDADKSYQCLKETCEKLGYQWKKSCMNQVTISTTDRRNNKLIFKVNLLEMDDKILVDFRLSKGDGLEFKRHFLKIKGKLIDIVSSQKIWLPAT
In words: Inhibition of full length human N-terminal GST-tagged CHK1 (1 to 476 residues) expressed in baculovirus expression system using fluorescence labelled CHKtide as substrate at 50 times IC50 by electrophoretic mobility shift assay relative to control.

The target in test [3] is Rho-associated protein kinase 1 (Homo sapiens) (UniProt Q13464). Put plainly: Inhibition of human N-terminal GST-tagged ROCK1 catalytic domain (1 to 477 residues) expressed in baculovirus expression system using fluorescence labelled LIMKtide substrate at 50 times IC50 by electrophoretic mobility shift assay relative to control.
Test [4] has as its target Death-associated protein kinase 1 (Homo sapiens) (UniProt P53355). In words: Inhibition of human N-terminal GST-tagged DAPK1 catalytic domain (1 to 289 residues) expressed in baculovirus expression system using fluorescence labelled DAPK1tide as substrate at 50 times IC50 by electrophoretic mobility shift assay relative to control.
The target in test [5] is Glycogen synthase kinase-3 beta (Homo sapiens) (UniProt P49841). In words: Inhibition of full length human N-terminal GST-tagged GSK3beta (1 to 420 residues) expressed in baculovirus expression system using fluorescence labelled CREBtide-p as substrate at 50 times IC50 by electrophoretic mobility shift assay relative to control.
The target in test [6] is T3, Ephrin type-B receptor 4 (Homo sapiens) (UniProt P54760).
T3 sequence (whole entry): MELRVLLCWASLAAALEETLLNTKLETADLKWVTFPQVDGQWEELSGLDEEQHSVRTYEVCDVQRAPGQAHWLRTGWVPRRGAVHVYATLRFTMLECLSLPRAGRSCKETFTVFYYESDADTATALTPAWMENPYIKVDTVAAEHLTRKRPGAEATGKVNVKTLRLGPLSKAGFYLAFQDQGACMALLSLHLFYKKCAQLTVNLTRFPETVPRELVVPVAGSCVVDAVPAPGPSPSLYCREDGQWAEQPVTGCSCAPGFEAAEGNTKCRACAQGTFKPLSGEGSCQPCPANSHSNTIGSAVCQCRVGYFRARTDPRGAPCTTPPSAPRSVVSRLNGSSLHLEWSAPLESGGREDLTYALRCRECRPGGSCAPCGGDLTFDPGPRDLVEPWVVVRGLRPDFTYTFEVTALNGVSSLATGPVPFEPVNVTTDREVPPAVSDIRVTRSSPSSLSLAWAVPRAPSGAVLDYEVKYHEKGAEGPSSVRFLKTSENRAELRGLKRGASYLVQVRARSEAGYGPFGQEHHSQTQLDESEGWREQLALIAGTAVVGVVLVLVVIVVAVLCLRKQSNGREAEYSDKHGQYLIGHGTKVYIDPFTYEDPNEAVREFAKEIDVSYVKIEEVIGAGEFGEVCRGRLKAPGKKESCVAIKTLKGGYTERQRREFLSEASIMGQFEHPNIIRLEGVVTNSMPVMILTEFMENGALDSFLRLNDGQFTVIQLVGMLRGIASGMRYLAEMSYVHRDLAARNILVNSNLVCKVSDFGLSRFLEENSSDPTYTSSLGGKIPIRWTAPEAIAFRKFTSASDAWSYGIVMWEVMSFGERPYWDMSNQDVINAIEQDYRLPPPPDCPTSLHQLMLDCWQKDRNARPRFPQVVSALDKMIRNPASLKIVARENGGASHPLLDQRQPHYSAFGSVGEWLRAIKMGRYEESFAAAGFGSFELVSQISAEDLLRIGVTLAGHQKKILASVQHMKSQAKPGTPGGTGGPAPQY
Put plainly: Inhibition of human N-terminal GST-tagged EPHB4 cytoplasmic domain (577 to 987 residues) expressed in baculovirus expression system using fluorescence labelled Blk/Lyntide as substrate at 50 times IC50 by electrophoretic mobility shift assay relative to control.

In test [7] the target is Insulin-like growth factor 1 receptor (Homo sapiens) (UniProt P08069). In words: Inhibition of human N-terminal GST-tagged IGF1R cytoplasmic domain (959 to 1367 residues) expressed in baculovirus expression system using fluorescence labelled IRS1 as substrate at 50 times IC50 by electrophoretic mobility shift assay relative to control.
Test [8] has as its target T4, Testis-specific serine/threonine-protein kinase 1 (Homo sapiens) (UniProt Q9BXA7).
T4 sequence (whole entry): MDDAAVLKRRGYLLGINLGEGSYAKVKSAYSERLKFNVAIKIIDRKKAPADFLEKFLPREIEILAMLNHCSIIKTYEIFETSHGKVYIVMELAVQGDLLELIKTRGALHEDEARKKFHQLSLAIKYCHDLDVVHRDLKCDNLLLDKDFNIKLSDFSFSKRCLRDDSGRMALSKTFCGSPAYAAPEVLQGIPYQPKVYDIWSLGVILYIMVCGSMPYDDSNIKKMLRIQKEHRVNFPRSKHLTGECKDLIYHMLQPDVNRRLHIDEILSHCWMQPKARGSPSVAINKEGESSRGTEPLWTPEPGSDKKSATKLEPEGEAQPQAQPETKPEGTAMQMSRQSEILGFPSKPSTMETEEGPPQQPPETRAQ
In words: Inhibition of full length human N-terminal GST-tagged TSSK1 (1 to 367 residues) expressed in baculovirus expression system using fluorescence labelled GS peptide substrate at 50 times IC50 by electrophoretic mobility shift assay relative to control.

Chain of Death-associated protein kinase 1 (Homo sapiens) (P53355 whole entry, looked up, the tested form may be a part): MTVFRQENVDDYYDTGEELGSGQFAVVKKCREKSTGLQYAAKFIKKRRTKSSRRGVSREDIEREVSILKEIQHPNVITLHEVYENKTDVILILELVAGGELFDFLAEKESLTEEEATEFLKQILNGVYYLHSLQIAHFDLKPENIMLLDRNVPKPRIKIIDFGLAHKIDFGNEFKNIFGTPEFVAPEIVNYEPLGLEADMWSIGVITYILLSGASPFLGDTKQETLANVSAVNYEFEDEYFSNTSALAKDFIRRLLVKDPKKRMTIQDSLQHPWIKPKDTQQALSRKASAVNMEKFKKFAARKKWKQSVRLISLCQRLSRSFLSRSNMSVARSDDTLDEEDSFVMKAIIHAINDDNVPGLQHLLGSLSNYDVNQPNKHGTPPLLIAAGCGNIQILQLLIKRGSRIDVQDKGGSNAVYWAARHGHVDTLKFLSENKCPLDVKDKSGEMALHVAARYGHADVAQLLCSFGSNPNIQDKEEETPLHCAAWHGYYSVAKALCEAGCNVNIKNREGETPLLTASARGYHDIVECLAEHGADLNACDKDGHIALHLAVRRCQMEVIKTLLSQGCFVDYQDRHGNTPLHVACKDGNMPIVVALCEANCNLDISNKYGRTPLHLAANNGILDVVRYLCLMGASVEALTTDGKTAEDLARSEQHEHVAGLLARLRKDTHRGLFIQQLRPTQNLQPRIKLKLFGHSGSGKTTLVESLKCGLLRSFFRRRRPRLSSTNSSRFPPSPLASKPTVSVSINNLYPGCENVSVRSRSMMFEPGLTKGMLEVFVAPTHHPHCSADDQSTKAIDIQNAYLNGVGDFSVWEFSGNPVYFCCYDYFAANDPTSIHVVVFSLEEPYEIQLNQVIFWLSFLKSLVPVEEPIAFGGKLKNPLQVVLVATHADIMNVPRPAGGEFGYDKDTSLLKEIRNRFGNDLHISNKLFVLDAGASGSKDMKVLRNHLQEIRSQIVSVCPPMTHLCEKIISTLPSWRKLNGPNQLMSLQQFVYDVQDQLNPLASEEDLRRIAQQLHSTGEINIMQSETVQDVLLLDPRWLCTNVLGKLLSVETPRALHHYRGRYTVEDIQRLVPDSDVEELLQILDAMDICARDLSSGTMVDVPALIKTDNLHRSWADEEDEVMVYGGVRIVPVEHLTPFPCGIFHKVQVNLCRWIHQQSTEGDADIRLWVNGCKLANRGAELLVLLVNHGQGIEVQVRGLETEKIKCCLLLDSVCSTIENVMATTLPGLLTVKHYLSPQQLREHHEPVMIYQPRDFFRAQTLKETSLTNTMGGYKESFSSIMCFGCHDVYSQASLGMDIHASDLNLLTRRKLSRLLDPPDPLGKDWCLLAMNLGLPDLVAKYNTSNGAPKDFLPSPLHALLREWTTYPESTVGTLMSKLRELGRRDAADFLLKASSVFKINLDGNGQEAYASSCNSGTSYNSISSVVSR
Chain of Rho-associated protein kinase 1 (Homo sapiens) (Q13464 2-1354 limits assumed): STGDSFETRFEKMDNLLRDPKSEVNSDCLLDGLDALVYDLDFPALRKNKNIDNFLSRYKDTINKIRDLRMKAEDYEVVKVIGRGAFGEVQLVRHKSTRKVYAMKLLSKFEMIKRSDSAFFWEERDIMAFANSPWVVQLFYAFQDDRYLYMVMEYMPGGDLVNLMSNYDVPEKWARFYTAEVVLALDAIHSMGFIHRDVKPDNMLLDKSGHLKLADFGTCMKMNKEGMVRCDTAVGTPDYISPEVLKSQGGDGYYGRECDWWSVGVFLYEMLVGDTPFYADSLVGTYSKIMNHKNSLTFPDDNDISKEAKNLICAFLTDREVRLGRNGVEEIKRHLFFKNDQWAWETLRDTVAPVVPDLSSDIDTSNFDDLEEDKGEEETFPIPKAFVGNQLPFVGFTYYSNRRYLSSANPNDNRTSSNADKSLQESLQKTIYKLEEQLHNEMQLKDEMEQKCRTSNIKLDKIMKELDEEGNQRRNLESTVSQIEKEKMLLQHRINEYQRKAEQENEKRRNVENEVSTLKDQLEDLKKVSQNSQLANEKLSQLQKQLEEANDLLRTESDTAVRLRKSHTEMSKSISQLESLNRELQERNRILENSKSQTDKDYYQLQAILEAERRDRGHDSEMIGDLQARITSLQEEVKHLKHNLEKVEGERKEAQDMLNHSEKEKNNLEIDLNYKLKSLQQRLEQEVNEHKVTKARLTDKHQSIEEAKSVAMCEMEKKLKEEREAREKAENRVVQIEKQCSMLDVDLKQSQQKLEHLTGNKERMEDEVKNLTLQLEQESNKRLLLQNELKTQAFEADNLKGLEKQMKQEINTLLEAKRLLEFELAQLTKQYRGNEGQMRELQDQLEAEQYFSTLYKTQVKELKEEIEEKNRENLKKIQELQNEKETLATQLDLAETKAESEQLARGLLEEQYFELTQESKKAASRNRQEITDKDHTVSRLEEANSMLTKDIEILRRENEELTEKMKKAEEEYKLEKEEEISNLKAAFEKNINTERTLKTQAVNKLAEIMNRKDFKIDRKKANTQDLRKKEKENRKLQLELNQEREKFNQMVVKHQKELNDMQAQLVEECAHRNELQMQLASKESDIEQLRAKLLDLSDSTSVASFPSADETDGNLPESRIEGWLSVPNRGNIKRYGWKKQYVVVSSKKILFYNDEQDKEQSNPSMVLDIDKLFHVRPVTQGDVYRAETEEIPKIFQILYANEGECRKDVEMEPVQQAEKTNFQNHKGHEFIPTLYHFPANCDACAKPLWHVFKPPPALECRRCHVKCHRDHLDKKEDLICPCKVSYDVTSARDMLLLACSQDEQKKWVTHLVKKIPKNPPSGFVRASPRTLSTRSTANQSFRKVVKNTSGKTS
Chain of Insulin-like growth factor 1 receptor (Homo sapiens) (P08069 31-736 limits assumed): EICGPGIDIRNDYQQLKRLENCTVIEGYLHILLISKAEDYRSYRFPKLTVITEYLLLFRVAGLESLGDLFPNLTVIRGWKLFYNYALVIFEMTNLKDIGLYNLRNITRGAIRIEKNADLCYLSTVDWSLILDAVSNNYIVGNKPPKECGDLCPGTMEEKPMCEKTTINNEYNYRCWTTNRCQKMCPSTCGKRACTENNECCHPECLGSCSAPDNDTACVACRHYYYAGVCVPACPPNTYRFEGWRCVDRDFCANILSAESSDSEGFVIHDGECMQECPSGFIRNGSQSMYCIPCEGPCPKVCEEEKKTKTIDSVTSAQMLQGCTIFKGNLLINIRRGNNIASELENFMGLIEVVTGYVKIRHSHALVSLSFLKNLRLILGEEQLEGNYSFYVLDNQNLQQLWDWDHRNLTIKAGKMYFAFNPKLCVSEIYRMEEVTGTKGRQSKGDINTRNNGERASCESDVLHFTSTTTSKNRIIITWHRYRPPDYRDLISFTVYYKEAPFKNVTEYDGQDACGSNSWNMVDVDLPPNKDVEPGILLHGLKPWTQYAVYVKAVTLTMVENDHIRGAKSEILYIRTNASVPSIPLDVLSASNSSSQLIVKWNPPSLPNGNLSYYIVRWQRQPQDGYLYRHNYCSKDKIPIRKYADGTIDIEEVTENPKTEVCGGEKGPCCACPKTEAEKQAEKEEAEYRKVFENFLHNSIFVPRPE
Chain of Insulin-like growth factor 1 receptor (Homo sapiens) (P08069 741-1367 limits assumed): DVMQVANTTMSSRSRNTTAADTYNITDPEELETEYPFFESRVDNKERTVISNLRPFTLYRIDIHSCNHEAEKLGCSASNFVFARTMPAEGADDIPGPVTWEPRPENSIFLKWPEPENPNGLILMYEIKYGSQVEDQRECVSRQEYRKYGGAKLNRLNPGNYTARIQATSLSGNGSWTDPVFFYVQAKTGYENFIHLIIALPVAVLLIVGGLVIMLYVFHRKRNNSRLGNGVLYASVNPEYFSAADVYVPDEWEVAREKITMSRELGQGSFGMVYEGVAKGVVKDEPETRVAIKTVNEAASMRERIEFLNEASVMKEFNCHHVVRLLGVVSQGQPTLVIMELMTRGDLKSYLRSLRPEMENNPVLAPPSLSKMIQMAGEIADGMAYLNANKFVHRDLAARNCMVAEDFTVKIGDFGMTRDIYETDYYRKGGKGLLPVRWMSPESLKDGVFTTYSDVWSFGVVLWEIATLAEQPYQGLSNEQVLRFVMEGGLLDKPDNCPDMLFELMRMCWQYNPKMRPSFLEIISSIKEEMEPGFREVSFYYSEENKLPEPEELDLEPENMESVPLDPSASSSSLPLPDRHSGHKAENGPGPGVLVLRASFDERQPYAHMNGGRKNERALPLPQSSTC
Chain of Glycogen synthase kinase-3 beta (Homo sapiens) (P49841 whole entry, looked up, the tested form may be a part): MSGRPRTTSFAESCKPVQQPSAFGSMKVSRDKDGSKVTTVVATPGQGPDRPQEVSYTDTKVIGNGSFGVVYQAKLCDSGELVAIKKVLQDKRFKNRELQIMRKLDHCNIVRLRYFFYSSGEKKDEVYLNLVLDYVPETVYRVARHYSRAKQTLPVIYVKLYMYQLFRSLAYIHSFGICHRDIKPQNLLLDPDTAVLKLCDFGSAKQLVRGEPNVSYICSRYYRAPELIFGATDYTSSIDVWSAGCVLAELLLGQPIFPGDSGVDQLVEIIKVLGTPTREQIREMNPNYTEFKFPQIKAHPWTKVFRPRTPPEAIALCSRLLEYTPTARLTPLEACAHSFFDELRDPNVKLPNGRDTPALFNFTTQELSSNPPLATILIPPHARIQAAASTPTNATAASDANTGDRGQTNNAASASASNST

Turning to `O=C(Nc1ccc(CN2CCN(c3ccccc3)CC2)cc1)c1n[nH]c2ccccc12`, the inhibition (as a rule, the drop in the measured response relative to a control, in per cent) in test [1] was -3.1%; in test [2], 1%; in test [3], 1.9%; in test [4], 8.3%; in test [5], -3.7%; in test [6], -0.4%. The inhibition turned out to be 0.5% in test [7] and 1% in test [8].

In the case of `O=C(Nc1ccc(C(=O)N2CCN(c3ccccc3)CC2)cc1)c1n[nH]c2ccccc12`, the inhibition in test [1] was -1.9%; in test [2] it was 8%; in test [3] it was 6.9%; in test [4], 13%; in test [5] it was 4.9%; in test [6], -1.2%. In addition, the inhibition in test [7] is 1.9%; in test [8], 4.3%.

`O=C(Nc1ccccc1)c1n[nH]c2ccccc12`: the inhibition came out at 4.5% in test [1]; 10.9% in test [2]; 3.3% in test [3]; 32.9% in test [4]; 51% in test [5]; 0.4% in test [6]. The values for the inhibition in test [7] and in test [8] were 18.2% and 12.9%, respectively.
